The values below come from ChEMBL document CHEMBL1909046, “DrugMatrix in vitro pharmacology data”.

The target in the first assay is T1, Alpha-2C adrenergic receptor (Homo sapiens, UniProt P18825).
T1 sequence (P18825 whole entry): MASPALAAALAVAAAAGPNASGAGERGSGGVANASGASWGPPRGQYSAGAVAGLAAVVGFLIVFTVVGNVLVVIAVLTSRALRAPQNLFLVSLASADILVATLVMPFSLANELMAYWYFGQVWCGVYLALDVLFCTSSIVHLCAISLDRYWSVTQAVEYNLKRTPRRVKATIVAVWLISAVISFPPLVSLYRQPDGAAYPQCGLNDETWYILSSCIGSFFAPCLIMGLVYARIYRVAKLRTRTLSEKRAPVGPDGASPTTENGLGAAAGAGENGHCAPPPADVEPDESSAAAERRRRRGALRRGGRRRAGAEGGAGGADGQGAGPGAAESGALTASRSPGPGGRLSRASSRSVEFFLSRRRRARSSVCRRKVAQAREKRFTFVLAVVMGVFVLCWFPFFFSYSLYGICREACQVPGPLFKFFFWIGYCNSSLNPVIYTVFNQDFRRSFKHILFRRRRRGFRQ
Kind of assay: DRUGMATRIX: Adrenergic Alpha-2C radioligand binding (ligand: [3H] MK-912). The class given is cell membranes, Sf9, Membrane. To be noted: sf9.
For `C[C@]12CCC(=O)C=C1CC[C@@H]1[C@@H]2[C@@H](O)C[C@@]2(C)[C@H]1CC[C@]2(O)C(=O)CO` [HYDROCORTISONE], the IC50 entry was “Not Active”.
Same read-out and setting: as for `NC[C@H]1O[C@H](O[C@H]2[C@H](O)[C@@H](O[C@H]3O[C@H](CO)[C@@H](O)[C@H](N)[C@H]3O)[C@H](N)C[C@@H]2N)[C@H](O)[C@@H](O)[C@@H]1O` [KANAMYCIN], the entry is “Not Active”; as for `CC[C@H](C)C(=O)O[C@H]1C[C@@H](C)C=C2C=C[C@H](C)[C@H](CC[C@@H]3C[C@@H](O)CC(=O)O3)[C@H]21` [LOVASTATIN], “Not Active”; as for `CC(C(=O)O)c1ccc(CC2CCCC2=O)cc1` (stereo not given) [LOXOPROFEN], “Not Active”.
On to `Cc1cccc(Nc2ccccc2C(=O)O)c1C` [MEFENAMIC ACID], for which the IC50 entry is reported as “Not Active”.
Same read-out and setting: as for `COc1ccccc1OCC(O)COC(N)=O` (stereo not given) [METHOCARBAMOL], the entry is “Not Active”; as for `COC(=O)c1ccccc1O` [METHYL SALICYLATE], “Not Active”.
On the same count and under the same terms, as for `COc1ccc2cc(CCC(C)=O)ccc2c1` [NABUMETONE], the entry is “Not Active”; as for `O=C(O)c1cccnc1` [NIACIN], “Not Active”; as for `C[C@]12C/C(=C/O)C(=O)C[C@@H]1CC[C@@H]1[C@@H]2CC[C@@]2(C)[C@H]1CC[C@]2(C)O` [OXYMETHOLONE], “Not Active”.
`CC(C)(CO)C(O)C(=O)NCCCO` (stereo not given) [PANTHENOL]: the IC50 result is reported as “Not Active”.
Still for that read-out and setting: as for `OCCN1CCN(CCCN2c3ccccc3Sc3ccc(Cl)cc32)CC1` [PERPHENAZINE], the entry is “Not Active”.
Take `CCCCC1C(=O)N(c2ccccc2)N(c2ccccc2)C1=O` [PHENYLBUTAZONE]: the IC50 result is listed as “Not Active”.
Take `CC[C@H](C)C(=O)O[C@H]1C[C@H](O)C=C2C=C[C@H](C)[C@H](CC[C@@H](O)C[C@@H](O)CC(=O)O)[C@H]21` [PRAVASTATIN]: the concentration for half-maximal inhibition (IC50) entry is on record as “Not Active”.
Still for that read-out and setting: as for `CC(C)(Sc1cc(C(C)(C)C)c(O)c(C(C)(C)C)c1)Sc1cc(C(C)(C)C)c(O)c(C(C)(C)C)c1` [PROBUCOL], the entry is “Not Active”.

A further assay concerns the target T2, Androgen receptor (Rattus norvegicus, UniProt P15207). Note: in other assays of this panel Not Active means under 50% inhibition at 10 µM.
T2 sequence (P15207 whole entry): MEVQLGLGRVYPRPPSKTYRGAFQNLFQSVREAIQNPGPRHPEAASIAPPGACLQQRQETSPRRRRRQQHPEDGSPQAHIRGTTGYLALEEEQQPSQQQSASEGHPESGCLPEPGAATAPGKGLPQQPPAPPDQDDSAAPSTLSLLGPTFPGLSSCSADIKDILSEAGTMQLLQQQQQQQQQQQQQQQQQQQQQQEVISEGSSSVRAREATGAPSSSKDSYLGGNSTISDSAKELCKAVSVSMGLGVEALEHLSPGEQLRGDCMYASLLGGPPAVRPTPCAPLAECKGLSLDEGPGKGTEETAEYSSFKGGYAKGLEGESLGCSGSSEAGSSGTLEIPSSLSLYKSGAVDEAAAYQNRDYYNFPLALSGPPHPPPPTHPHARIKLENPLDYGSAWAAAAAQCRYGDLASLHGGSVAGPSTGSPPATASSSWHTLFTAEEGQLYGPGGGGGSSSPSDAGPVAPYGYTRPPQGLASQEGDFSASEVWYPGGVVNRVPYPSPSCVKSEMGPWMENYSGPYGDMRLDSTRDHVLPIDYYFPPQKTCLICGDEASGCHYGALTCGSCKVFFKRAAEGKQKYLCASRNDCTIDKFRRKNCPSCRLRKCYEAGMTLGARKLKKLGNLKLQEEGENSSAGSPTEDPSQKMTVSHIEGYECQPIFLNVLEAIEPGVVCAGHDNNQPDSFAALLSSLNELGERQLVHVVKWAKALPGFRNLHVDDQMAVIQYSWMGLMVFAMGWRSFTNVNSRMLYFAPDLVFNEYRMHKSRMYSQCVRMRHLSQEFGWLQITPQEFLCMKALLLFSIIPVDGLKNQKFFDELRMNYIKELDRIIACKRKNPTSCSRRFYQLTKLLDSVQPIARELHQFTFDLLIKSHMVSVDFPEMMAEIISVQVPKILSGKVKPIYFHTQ
Details: not given
Turning to `N=C(N)N/N=C/c1c(Cl)cccc1Cl` [GUANABENZ], the IC50 entry is “Not Active”.
The same measure, in the same setting: as for `C[C@]12CCC(=O)C=C1CC[C@@H]1[C@@H]2[C@@H](O)C[C@@]2(C)[C@H]1CC[C@]2(O)C(=O)CO` [HYDROCORTISONE], the entry is “Not Active”.

The target of the next assay is T3, 5-hydroxytryptamine receptor 2C (Homo sapiens, UniProt P28335).
T3 sequence (P28335 whole entry): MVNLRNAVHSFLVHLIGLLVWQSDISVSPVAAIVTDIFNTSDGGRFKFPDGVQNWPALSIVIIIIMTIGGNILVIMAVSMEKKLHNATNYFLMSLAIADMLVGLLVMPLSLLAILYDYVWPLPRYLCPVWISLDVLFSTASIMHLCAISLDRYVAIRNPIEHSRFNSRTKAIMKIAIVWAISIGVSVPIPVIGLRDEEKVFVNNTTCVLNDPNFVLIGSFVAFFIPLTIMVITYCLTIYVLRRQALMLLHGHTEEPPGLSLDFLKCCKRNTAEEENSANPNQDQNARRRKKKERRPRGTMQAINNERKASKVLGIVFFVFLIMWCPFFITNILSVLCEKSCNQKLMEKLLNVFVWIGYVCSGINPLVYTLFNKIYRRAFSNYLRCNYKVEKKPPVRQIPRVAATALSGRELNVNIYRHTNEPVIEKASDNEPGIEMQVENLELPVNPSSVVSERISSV
Kind of assay: DRUGMATRIX: Serotonin (5-Hydroxytryptamine) 5-HT2C radioligand binding (ligand: [3H] Mesulergine). To be noted: Not Active = under 50% inhibition at 10 µM; read-out: IC50. The class given is cell membranes, CHO-K1, Membrane.
For the compound `N=C(N)N/N=C/c1c(Cl)cccc1Cl` [GUANABENZ], the IC50 is 204 nM.

The assay is the same for the next values; noted with them: Not Active = under 50% inhibition at 10 µM; read-out: Ki.
As to `N=C(N)N/N=C/c1c(Cl)cccc1Cl` [GUANABENZ], the inhibition constant Ki was 107 nM.

The assay is the same for the next values; noted with them: cho-k1; Not Active = under 50% inhibition at 10 µM.
In the case of `C[C@]12CCC(=O)C=C1CC[C@@H]1[C@@H]2[C@@H](O)C[C@@]2(C)[C@H]1CC[C@]2(O)C(=O)CO` [HYDROCORTISONE], the IC50 result was “Not Active”.
The same measure, in the same setting: as for `NC[C@H]1O[C@H](O[C@H]2[C@H](O)[C@@H](O[C@H]3O[C@H](CO)[C@@H](O)[C@H](N)[C@H]3O)[C@H](N)C[C@@H]2N)[C@H](O)[C@@H](O)[C@@H]1O` [KANAMYCIN], the entry is “Not Active”; as for `CC[C@H](C)C(=O)O[C@H]1C[C@@H](C)C=C2C=C[C@H](C)[C@H](CC[C@@H]3C[C@@H](O)CC(=O)O3)[C@H]21` [LOVASTATIN], “Not Active”.
The same measure, in the same setting: as for `CC(C(=O)O)c1ccc(CC2CCCC2=O)cc1` (stereo not given) [LOXOPROFEN], the entry is “Not Active”; as for `Cc1cccc(Nc2ccccc2C(=O)O)c1C` [MEFENAMIC ACID], “Not Active”; as for `COc1ccccc1OCC(O)COC(N)=O` (stereo not given) [METHOCARBAMOL], “Not Active”.
The same measure, in the same setting: as for `COC(=O)c1ccccc1O` [METHYL SALICYLATE], the entry is “Not Active”; as for `COc1ccc2cc(CCC(C)=O)ccc2c1` [NABUMETONE], “Not Active”; as for `O=C(O)c1cccnc1` [NIACIN], “Not Active”.
Turning to `C[C@]12C/C(=C/O)C(=O)C[C@@H]1CC[C@@H]1[C@@H]2CC[C@@]2(C)[C@H]1CC[C@]2(C)O` [OXYMETHOLONE], the IC50 entry is given as “Not Active”.
`CC(C)(CO)C(O)C(=O)NCCCO` (stereo not given) [PANTHENOL]: the IC50 result is reported as “Not Active”.
On the same count and under the same terms, as for `OCCN1CCN(CCCN2c3ccccc3Sc3ccc(Cl)cc32)CC1` [PERPHENAZINE], the entry is “Not Active”; as for `CCCCC1C(=O)N(c2ccccc2)N(c2ccccc2)C1=O` [PHENYLBUTAZONE], “Not Active”; as for `CC[C@H](C)C(=O)O[C@H]1C[C@H](O)C=C2C=C[C@H](C)[C@H](CC[C@@H](O)C[C@@H](O)CC(=O)O)[C@H]21` [PRAVASTATIN], “Not Active”.
As to `CC(C)(Sc1cc(C(C)(C)C)c(O)c(C(C)(C)C)c1)Sc1cc(C(C)(C)C)c(O)c(C(C)(C)C)c1` [PROBUCOL], the IC50 result is “Not Active”.

For another assay, the target named is Carbonic anhydrase 2 (Homo sapiens, UniProt P00918). Kind of assay: DRUGMATRIX: Carbonic Anhydrase II enzyme inhibition (substrate: 4-Nitrophenyl acetate (4-NPA)). The following applies: erythrocyte; Not Active = under 50% inhibition at 10 µM. The class given is tissue-based, Erythrocyte.
`N=C(N)N/N=C/c1c(Cl)cccc1Cl` [GUANABENZ]: the IC50 entry is “Not Active”.
Same read-out and setting: as for `C[C@]12CCC(=O)C=C1CC[C@@H]1[C@@H]2[C@@H](O)C[C@@]2(C)[C@H]1CC[C@]2(O)C(=O)CO` [HYDROCORTISONE], the entry is “Not Active”.
As to `NC[C@H]1O[C@H](O[C@H]2[C@H](O)[C@@H](O[C@H]3O[C@H](CO)[C@@H](O)[C@H](N)[C@H]3O)[C@H](N)C[C@@H]2N)[C@H](O)[C@@H](O)[C@@H]1O` [KANAMYCIN], the half-inhibitory concentration (IC50) result is recorded as “Not Active”.
The same measure, in the same setting: as for `CC[C@H](C)C(=O)O[C@H]1C[C@@H](C)C=C2C=C[C@H](C)[C@H](CC[C@@H]3C[C@@H](O)CC(=O)O3)[C@H]21` [LOVASTATIN], the entry is “Not Active”; as for `CC(C(=O)O)c1ccc(CC2CCCC2=O)cc1` (stereo not given) [LOXOPROFEN], “Not Active”; as for `Cc1cccc(Nc2ccccc2C(=O)O)c1C` [MEFENAMIC ACID], “Not Active”.
The same measure, in the same setting: as for `COc1ccccc1OCC(O)COC(N)=O` (stereo not given) [METHOCARBAMOL], the entry is “Not Active”.
On the same count and under the same terms, as for `COC(=O)c1ccccc1O` [METHYL SALICYLATE], the entry is “Not Active”; as for `COc1ccc2cc(CCC(C)=O)ccc2c1` [NABUMETONE], “Not Active”.
With `O=C(O)c1cccnc1` [NIACIN], the 50% inhibitory concentration (IC50) entry is listed as “Not Active”.
On to `C[C@]12C/C(=C/O)C(=O)C[C@@H]1CC[C@@H]1[C@@H]2CC[C@@]2(C)[C@H]1CC[C@]2(C)O` [OXYMETHOLONE], for which the IC50 entry is recorded as “Not Active”.
In the case of `CC(C)(CO)C(O)C(=O)NCCCO` (stereo not given) [PANTHENOL], the IC50 result is “Not Active”.
As for `OCCN1CCN(CCCN2c3ccccc3Sc3ccc(Cl)cc32)CC1` [PERPHENAZINE], the IC50 result is listed as “Not Active”.
The same measure, in the same setting: as for `CCCCC1C(=O)N(c2ccccc2)N(c2ccccc2)C1=O` [PHENYLBUTAZONE], the entry is “Not Active”; as for `CC[C@H](C)C(=O)O[C@H]1C[C@H](O)C=C2C=C[C@H](C)[C@H](CC[C@@H](O)C[C@@H](O)CC(=O)O)[C@H]21` [PRAVASTATIN], “Not Active”; as for `CC(C)(Sc1cc(C(C)(C)C)c(O)c(C(C)(C)C)c1)Sc1cc(C(C)(C)C)c(O)c(C(C)(C)C)c1` [PROBUCOL], “Not Active”.
